From ChEMBL document CHEMBL4507287, “Data for DCP probe MRL-650” (2021)

What was measured:
[1] = biological target: Serine/threonine-protein kinase pim-3 (Homo sapiens) (UniProt Q86V86); conditions: Compound concentration 1000.0 nM
[2] = biological target: Mitogen-activated protein kinase kinase kinase 15 (Homo sapiens) (UniProt Q6ZN16); conditions: Compound concentration 1000.0 nM
[3] = biological target: Phosphatidylinositol 4-phosphate 5-kinase type-1 alpha (Homo sapiens) (UniProt Q99755); conditions: Compound concentration 1000.0 nM
[4] = biological target: Dual specificity protein kinase CLK3 (Homo sapiens) (UniProt P49761); conditions: Compound concentration 1000.0 nM
[5] = biological target: Muscarinic acetylcholine receptor M1 (Homo sapiens) (UniProt P11229); conditions: Compound concentration 10.0 uM
Sequence of Muscarinic acetylcholine receptor M1 (Homo sapiens) (P11229 whole entry, canonical isoform): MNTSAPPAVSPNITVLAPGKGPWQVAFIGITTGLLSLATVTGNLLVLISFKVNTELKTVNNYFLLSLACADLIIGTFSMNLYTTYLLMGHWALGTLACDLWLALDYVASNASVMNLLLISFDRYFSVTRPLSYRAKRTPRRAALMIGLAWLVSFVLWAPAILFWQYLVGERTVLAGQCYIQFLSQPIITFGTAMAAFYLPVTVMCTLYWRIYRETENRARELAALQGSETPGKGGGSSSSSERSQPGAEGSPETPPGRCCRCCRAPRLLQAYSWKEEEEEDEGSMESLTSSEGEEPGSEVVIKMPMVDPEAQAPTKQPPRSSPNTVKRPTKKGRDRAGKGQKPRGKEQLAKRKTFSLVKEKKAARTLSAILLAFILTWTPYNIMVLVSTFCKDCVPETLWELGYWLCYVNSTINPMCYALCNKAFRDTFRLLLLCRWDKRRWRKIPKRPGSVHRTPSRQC

[6] = biological target: Casein kinase I isoform alpha (Homo sapiens) (UniProt P48729); conditions: Compound concentration 1000.0 nM
[7] = biological target: Protein kinase C iota type (Homo sapiens) (UniProt P41743); conditions: Compound concentration 1000.0 nM
[8] = biological target: Phosphatidylinositol 4,5-bisphosphate 3-kinase catalytic subunit beta isoform (Homo sapiens) (UniProt P42338); conditions: Compound concentration 1000.0 nM
[9] = biological target: Mitotic checkpoint serine/threonine-protein kinase BUB1 (Homo sapiens) (UniProt O43683); conditions: Compound concentration 1000.0 nM
[10] = biological target: Mitogen-activated protein kinase kinase kinase 14 (Homo sapiens) (UniProt Q99558); conditions: Compound concentration 1000.0 nM
[11] = biological target: Mitogen-activated protein kinase 15 (Homo sapiens) (UniProt Q8TD08); conditions: Compound concentration 1000.0 nM
[12] = biological target: 5-hydroxytryptamine receptor 2C (Homo sapiens) (UniProt P28335); conditions: Compound concentration 10.0 uM
[13] = biological target: Delta-type opioid receptor (Homo sapiens, UniProt P41143); conditions: Compound concentration 10.0 uM
Sequence of Delta-type opioid receptor (P41143 whole entry): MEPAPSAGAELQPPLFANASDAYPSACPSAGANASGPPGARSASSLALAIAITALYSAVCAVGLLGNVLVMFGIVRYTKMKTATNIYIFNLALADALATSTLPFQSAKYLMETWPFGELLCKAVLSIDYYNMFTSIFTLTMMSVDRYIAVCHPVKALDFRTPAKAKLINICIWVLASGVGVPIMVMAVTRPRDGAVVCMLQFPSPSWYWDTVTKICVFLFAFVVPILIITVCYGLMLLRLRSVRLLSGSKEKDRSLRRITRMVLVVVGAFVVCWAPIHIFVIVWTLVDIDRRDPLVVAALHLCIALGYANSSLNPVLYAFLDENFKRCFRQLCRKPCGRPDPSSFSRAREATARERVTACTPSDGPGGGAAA

[14] = biological target: Serine/threonine-protein kinase PAK 6 (Homo sapiens) (UniProt Q9NQU5); conditions: Compound concentration 1000.0 nM
[15] = biological target: Alpha-2A adrenergic receptor (Homo sapiens) (UniProt P08913); conditions: Compound concentration 10.0 uM
[16] = tested on: Phosphatidylinositol 4,5-bisphosphate 3-kinase catalytic subunit alpha isoform (Homo sapiens), P42336 [H1047L]; conditions: Compound concentration 1000.0 nM
[17] = biological target: Ankyrin repeat and protein kinase domain-containing protein 1 (Homo sapiens) (UniProt Q8NFD2); conditions: Compound concentration 1000.0 nM
[18] = biological target: Serine/threonine-protein kinase pim-1 (Homo sapiens) (UniProt P11309); conditions: Compound concentration 1000.0 nM
Sequence of Serine/threonine-protein kinase pim-1 (Homo sapiens) (P11309 whole entry, looked up): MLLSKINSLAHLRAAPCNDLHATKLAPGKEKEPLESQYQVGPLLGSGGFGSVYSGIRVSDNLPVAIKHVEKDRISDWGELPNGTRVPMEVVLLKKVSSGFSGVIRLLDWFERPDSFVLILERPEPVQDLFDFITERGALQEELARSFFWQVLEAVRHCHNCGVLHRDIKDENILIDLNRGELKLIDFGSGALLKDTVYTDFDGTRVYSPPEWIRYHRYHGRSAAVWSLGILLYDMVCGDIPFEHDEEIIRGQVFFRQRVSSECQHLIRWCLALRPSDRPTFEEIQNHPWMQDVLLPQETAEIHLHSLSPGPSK

[19] = biological target: Serine/threonine-protein kinase tousled-like 2 (Homo sapiens) (UniProt Q86UE8); conditions: Compound concentration 1000.0 nM
[20] = biological target: Cyclin-dependent kinase 8 (Homo sapiens) (UniProt P49336); conditions: Compound concentration 1000.0 nM
[21] = biological target: Interleukin-1 receptor-associated kinase 3 (Homo sapiens) (UniProt Q9Y616); conditions: Compound concentration 1000.0 nM
[22] = biological target: Dual specificity testis-specific protein kinase 1 (Homo sapiens) (UniProt Q15569); conditions: Compound concentration 1000.0 nM
Sequence of Dual specificity testis-specific protein kinase 1 (Homo sapiens) (Q15569 whole entry, looked up): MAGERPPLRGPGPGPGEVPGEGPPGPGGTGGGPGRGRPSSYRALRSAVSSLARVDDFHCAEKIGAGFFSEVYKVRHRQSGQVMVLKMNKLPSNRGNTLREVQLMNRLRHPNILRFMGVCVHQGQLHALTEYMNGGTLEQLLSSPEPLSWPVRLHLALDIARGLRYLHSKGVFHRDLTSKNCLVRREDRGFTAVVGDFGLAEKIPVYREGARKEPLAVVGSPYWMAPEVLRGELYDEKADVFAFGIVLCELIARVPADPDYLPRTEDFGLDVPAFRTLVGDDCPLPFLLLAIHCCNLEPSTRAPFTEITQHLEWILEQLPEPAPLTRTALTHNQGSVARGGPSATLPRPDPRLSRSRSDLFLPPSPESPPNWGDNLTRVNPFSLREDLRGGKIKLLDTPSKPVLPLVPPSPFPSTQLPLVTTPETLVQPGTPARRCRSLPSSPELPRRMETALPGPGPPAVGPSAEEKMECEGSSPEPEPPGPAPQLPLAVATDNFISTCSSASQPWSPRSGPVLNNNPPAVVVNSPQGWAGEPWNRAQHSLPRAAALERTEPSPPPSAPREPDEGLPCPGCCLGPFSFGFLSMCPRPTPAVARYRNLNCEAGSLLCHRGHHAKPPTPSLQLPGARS

[23] = biological target: Mitogen-activated protein kinase kinase kinase 3 (Homo sapiens) (UniProt Q99759); conditions: Compound concentration 1000.0 nM
[24] = tested on: ALK tyrosine kinase receptor (Homo sapiens), Q9UM73 [C1156Y]; conditions: Compound concentration 1000.0 nM
Sequence of ALK tyrosine kinase receptor (Homo sapiens), Q9UM73 [C1156Y] (Q9UM73 whole entry C1156Y, looked up): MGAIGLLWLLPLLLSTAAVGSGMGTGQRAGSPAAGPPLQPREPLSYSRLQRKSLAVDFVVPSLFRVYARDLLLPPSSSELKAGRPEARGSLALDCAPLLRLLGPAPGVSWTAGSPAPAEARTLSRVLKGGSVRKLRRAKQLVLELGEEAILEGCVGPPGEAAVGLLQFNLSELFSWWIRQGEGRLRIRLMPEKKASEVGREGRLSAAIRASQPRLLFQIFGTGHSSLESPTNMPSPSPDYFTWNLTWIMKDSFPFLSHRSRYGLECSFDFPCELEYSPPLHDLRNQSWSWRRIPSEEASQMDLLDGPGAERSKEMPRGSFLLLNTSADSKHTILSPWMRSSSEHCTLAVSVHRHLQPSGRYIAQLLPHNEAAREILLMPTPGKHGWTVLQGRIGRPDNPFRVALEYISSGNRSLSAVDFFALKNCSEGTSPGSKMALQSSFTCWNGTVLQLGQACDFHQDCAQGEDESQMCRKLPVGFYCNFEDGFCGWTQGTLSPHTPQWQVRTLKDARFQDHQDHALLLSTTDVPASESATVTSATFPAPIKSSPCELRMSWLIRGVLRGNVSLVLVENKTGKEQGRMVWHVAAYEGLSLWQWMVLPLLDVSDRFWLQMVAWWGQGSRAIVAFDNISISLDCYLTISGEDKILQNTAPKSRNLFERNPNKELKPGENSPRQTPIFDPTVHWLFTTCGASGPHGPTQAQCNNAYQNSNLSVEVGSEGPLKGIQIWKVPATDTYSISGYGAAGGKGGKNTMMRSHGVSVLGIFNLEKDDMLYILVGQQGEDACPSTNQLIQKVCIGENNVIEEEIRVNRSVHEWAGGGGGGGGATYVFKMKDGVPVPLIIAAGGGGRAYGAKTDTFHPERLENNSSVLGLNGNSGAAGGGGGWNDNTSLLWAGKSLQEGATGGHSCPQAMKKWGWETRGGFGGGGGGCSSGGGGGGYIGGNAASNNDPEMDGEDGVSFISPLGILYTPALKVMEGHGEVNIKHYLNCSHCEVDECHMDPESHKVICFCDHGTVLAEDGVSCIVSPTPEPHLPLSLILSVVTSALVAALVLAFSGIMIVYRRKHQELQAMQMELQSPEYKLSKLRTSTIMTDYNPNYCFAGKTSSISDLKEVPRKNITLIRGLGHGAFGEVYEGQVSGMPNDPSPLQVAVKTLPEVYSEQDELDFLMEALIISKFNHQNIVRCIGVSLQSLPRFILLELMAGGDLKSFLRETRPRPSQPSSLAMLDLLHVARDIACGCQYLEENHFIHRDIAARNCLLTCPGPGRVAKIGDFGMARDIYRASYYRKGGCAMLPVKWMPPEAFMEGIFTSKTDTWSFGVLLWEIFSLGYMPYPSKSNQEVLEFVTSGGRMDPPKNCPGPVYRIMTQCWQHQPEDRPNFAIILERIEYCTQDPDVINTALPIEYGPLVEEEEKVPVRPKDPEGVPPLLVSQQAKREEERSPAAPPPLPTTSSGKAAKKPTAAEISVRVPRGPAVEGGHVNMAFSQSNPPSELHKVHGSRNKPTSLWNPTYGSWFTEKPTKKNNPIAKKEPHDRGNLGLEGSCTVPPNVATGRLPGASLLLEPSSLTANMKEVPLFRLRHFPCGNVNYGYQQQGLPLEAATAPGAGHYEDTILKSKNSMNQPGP

[25] = biological target: 5'-AMP-activated protein kinase catalytic subunit alpha-2 (Homo sapiens) (UniProt P54646); conditions: Compound concentration 1000.0 nM
[26] = biological target: Calcium/calmodulin-dependent protein kinase type II subunit delta (Homo sapiens) (UniProt Q13557); conditions: Compound concentration 1000.0 nM
Sequence of Calcium/calmodulin-dependent protein kinase type II subunit delta (Homo sapiens) (Q13557 whole entry): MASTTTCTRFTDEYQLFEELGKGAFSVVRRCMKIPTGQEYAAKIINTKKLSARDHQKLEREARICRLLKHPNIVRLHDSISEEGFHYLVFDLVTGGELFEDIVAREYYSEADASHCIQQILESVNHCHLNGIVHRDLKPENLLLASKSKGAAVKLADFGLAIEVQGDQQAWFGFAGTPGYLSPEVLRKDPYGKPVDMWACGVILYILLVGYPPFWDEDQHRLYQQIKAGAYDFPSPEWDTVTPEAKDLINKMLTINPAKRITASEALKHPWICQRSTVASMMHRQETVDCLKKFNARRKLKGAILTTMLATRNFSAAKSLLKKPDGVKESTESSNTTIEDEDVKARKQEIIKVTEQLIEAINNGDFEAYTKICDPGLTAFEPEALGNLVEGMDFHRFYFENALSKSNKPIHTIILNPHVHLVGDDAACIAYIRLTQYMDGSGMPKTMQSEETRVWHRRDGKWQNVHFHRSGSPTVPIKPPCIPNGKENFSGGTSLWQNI

[27] = biological target: Tyrosine-protein kinase JAK1 (Homo sapiens) (UniProt P23458); conditions: Compound concentration 1000.0 nM
[28] = tested on: Fibroblast growth factor receptor 3 (Homo sapiens), P22607 [G697C]; conditions: Compound concentration 1000.0 nM
[29] = biological target: Megakaryocyte-associated tyrosine-protein kinase (Homo sapiens) (UniProt P42679); conditions: Compound concentration 1000.0 nM
Sequence of Megakaryocyte-associated tyrosine-protein kinase (Homo sapiens) (P42679 whole entry): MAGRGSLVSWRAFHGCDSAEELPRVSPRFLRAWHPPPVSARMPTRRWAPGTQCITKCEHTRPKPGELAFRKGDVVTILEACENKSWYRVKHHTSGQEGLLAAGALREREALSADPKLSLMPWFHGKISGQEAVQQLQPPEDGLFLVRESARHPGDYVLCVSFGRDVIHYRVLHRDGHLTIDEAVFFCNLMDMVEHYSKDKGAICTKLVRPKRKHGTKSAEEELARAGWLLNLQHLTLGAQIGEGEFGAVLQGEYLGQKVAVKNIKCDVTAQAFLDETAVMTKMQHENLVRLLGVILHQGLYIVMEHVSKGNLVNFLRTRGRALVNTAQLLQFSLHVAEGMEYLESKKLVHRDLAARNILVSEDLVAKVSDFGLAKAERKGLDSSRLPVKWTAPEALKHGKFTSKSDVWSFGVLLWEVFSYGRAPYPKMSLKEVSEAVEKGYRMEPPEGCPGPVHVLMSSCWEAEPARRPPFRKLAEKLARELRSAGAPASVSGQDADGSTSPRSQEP

[30] = biological target: Serine/threonine-protein kinase Nek3 (Homo sapiens) (UniProt P51956); conditions: Compound concentration 1000.0 nM
[31] = biological target: Mitogen-activated protein kinase 11 (Homo sapiens) (UniProt Q15759); conditions: Compound concentration 1000.0 nM
[32] = biological target: Serine/threonine-protein kinase BRSK1 (Homo sapiens) (UniProt Q8TDC3); conditions: Compound concentration 1000.0 nM
[33] = biological target: High affinity nerve growth factor receptor (Homo sapiens) (UniProt P04629); conditions: Compound concentration 1000.0 nM
[34] = biological target: Calcium-dependent protein kinase 1 (Plasmodium falciparum) (UniProt P62344); conditions: Compound concentration 1000.0 nM
[35] = biological target: Muscarinic acetylcholine receptor M5 (Homo sapiens) (UniProt P08912); conditions: Compound concentration 10.0 uM
[36] = biological target: Dual specificity mitogen-activated protein kinase kinase 4 (Homo sapiens) (UniProt P45985); conditions: Compound concentration 1000.0 nM
[37] = biological target: D(1B) dopamine receptor (Homo sapiens) (UniProt P21918); conditions: Compound concentration 10.0 uM
Sequence of D(1B) dopamine receptor (Homo sapiens) (P21918 whole entry): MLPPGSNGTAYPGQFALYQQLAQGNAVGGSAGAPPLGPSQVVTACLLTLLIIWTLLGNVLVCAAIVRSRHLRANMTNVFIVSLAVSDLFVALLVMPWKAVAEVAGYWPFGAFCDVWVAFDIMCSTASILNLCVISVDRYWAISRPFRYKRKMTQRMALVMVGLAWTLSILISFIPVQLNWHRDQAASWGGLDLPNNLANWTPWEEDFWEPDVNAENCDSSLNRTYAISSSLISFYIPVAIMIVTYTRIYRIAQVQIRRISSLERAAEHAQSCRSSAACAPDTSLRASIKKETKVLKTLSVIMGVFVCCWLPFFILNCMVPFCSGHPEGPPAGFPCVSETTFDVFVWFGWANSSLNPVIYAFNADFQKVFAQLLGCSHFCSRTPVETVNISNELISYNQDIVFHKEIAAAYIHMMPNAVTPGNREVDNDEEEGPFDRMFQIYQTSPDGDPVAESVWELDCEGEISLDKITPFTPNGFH

[38] = biological target: Calcium/calmodulin-dependent protein kinase type IV (Homo sapiens) (UniProt Q16566); conditions: Compound concentration 1000.0 nM
[39] = biological target: Tyrosine-protein kinase Lyn (Homo sapiens) (UniProt P07948); conditions: Compound concentration 1000.0 nM
[40] = biological target: Mitogen-activated protein kinase 10 (Homo sapiens) (UniProt P53779); conditions: Compound concentration 1000.0 nM
[41] = biological target: Calcium/calmodulin-dependent protein kinase kinase 2 (Homo sapiens) (UniProt Q96RR4); conditions: Compound concentration 1000.0 nM
[42] = biological target: Macrophage colony-stimulating factor 1 receptor (Homo sapiens) (UniProt P07333); conditions: Compound concentration 1000.0 nM
[43] = biological target: Tyrosine-protein kinase Lck (Homo sapiens) (UniProt P06239); conditions: Compound concentration 1000.0 nM
[44] = biological target: Tyrosine-protein kinase SYK (Homo sapiens) (UniProt P43405); conditions: Compound concentration 1000.0 nM
[45] = biological target: Phosphatidylinositol 4,5-bisphosphate 3-kinase catalytic subunit delta isoform (Homo sapiens) (UniProt O00329); conditions: Compound concentration 1000.0 nM

Compound: CC(=O)Nc1c(C(C)=O)c(=O)n(C)c2nc(-c3ccc(Cl)cc3Cl)c(-c3ccc(Cl)cc3)cc12 [NAPHTHYRIDINONE]
- residual activity [1]: 100%
- residual activity [2]: 100%
- residual activity [3]: 100%
- residual activity [4]: 100%
- inhibition [5]: -3.7%
- residual activity [6]: 100%
- residual activity [7]: 100%
- residual activity [8]: 100%
- residual activity [9]: 92%
- residual activity [10]: 92%
- residual activity [11]: 100%
- inhibition [12]: 17.5%
- inhibition [13]: -2.35%
- residual activity [14]: 100%
- inhibition [15]: 1.31%
- residual activity [16]: 95%
- residual activity [17]: 100%
- residual activity [18]: 100%
- residual activity [19]: 100%
- residual activity [20]: 100%
- residual activity [21]: 95%
- residual activity [22]: 100%
- residual activity [23]: 100%
- residual activity [24]: 100%
- residual activity [25]: 100%
- residual activity [26]: 100%
- residual activity [27]: 100%
- residual activity [28]: 100%
- residual activity [29]: 100%
- residual activity [30]: 100%
- residual activity [31]: 93%
- residual activity [32]: 85%
- residual activity [33]: 100%
- residual activity [34]: 95%
- inhibition [35]: -4.54%
- residual activity [36]: 100%
- inhibition [37]: 5.24%
- residual activity [38]: 100%
- residual activity [39]: 100%
- residual activity [40]: 100%
- residual activity [41]: 100%
- residual activity [42]: 100%
- residual activity [43]: 100%
- residual activity [44]: 96%
- residual activity [45]: 100%

Compound: CC(=O)c1c(NS(C)(=O)=O)c2cc(-c3ccc(Cl)cc3)c(-c3ccc(Cl)cc3Cl)nc2n(C)c1=O [MRL-CB1-NC]
- residual activity [1]: 100%
- residual activity [2]: 91%
- residual activity [3]: 97%
- residual activity [4]: 92%
- inhibition [5]: 3.28%
- residual activity [6]: 100%
- residual activity [7]: 100%
- residual activity [8]: 100%
- residual activity [9]: 76%
- residual activity [10]: 63%
- residual activity [11]: 100%
- inhibition [12]: 81.8%
- inhibition [13]: 73.6%
- residual activity [14]: 100%
- inhibition [15]: 19.8%
- residual activity [16]: 96%
- residual activity [17]: 70%
- residual activity [18]: 90%
- residual activity [19]: 99%
- residual activity [20]: 83%
- residual activity [21]: 100%
- residual activity [22]: 100%
- residual activity [23]: 100%
- residual activity [24]: 100%
- residual activity [25]: 85%
- residual activity [26]: 100%
- residual activity [27]: 76%
- residual activity [28]: 100%
- residual activity [29]: 83%
- residual activity [30]: 67%
- residual activity [31]: 100%
- residual activity [32]: 99%
- residual activity [33]: 64%
- residual activity [34]: 99%
- inhibition [35]: -4.92%
- residual activity [36]: 89%
- inhibition [37]: 44.5%
- residual activity [38]: 100%
- residual activity [39]: 100%
- residual activity [40]: 78%
- residual activity [41]: 100%
- residual activity [42]: 100%
- residual activity [43]: 100%
- residual activity [44]: 100%
- residual activity [45]: 100%
